Results as given in ChEMBL document CHEMBL5096241, “Discovery of 3-Aminopyrazole Derivatives as New Potent and Orally Bioavailable AXL Inhibitors” (J Med Chem, 2022).

Key:
[1] = target: T1, Tyrosine-protein kinase receptor UFO (Homo sapiens, UniProt P30530); assay: Inhibition of recombinant AXL (unknown origin) using poly (Glu,Tyr) 4:1 as substrate incubated for 60 mins in presence of ATP by ELISA
T1 sequence (P30530 whole entry): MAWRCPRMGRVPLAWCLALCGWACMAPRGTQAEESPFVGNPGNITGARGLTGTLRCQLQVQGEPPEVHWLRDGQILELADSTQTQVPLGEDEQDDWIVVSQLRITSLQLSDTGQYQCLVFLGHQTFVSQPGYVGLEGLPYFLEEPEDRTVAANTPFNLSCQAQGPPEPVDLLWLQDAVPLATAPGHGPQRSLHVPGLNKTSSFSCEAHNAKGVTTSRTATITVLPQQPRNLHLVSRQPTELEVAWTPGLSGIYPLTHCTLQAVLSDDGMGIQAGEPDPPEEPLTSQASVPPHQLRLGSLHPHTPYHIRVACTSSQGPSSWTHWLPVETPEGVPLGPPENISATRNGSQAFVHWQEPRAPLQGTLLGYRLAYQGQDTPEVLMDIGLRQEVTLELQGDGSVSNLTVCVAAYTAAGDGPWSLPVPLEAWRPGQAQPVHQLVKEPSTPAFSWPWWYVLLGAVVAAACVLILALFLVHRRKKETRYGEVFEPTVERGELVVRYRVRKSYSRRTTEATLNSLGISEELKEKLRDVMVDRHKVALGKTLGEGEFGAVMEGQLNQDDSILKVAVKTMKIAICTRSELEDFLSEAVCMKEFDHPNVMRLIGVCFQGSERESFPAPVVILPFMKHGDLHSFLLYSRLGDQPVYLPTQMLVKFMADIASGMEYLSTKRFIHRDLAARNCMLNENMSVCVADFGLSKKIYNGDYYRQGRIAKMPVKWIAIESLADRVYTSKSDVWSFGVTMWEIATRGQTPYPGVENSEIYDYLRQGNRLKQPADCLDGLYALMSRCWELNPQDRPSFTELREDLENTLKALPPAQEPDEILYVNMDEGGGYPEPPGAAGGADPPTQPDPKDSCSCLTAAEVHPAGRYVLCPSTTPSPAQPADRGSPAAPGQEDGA

BaF3 = assay: Antiproliferative activity against mouse BaF3 cells transfected with TEL-AXL assessed as inhibition of cell growth incubated for 72 hrs; format: functional, cell-based; settings: BaF3, 72 h
[2] = target: T2, Macrophage colony-stimulating factor 1 receptor (Homo sapiens, UniProt P07333); assay: Binding affinity to CSF1R (unknown origin) assessed as dissociation constant by competition binding assay
T2 sequence (P07333 whole entry, the tested form may be a part): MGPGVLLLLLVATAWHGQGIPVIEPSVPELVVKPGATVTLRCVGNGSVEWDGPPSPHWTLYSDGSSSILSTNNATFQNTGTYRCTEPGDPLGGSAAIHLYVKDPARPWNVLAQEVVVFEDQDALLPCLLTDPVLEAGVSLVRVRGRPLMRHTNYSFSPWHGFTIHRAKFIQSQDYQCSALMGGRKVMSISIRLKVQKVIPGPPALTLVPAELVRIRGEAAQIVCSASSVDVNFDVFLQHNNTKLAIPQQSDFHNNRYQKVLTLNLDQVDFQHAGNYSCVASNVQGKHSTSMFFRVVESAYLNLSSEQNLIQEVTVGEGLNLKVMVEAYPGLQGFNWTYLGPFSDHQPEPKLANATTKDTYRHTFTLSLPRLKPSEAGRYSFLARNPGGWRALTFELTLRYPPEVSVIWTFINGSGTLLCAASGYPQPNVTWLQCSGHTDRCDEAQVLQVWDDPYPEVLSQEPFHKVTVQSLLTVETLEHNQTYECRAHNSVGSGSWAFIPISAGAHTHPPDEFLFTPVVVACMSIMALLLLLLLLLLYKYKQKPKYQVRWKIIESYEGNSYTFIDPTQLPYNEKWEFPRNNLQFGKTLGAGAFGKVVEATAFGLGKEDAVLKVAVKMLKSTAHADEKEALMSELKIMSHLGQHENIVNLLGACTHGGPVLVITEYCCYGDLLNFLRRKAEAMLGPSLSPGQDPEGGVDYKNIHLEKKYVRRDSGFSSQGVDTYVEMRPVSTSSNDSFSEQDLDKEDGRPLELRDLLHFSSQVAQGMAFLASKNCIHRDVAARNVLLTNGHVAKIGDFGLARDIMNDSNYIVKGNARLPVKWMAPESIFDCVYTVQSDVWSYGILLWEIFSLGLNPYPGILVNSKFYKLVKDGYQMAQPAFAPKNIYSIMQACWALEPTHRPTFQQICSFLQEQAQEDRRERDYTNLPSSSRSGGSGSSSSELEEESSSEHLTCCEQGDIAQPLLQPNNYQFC

[3] = target: Epithelial discoidin domain-containing receptor 1 (Homo sapiens, UniProt Q08345); assay: Binding affinity to DDR1 (unknown origin) assessed as dissociation constant by competition binding assay
Sequence of Epithelial discoidin domain-containing receptor 1 (Q08345 whole entry, the tested form may be a part): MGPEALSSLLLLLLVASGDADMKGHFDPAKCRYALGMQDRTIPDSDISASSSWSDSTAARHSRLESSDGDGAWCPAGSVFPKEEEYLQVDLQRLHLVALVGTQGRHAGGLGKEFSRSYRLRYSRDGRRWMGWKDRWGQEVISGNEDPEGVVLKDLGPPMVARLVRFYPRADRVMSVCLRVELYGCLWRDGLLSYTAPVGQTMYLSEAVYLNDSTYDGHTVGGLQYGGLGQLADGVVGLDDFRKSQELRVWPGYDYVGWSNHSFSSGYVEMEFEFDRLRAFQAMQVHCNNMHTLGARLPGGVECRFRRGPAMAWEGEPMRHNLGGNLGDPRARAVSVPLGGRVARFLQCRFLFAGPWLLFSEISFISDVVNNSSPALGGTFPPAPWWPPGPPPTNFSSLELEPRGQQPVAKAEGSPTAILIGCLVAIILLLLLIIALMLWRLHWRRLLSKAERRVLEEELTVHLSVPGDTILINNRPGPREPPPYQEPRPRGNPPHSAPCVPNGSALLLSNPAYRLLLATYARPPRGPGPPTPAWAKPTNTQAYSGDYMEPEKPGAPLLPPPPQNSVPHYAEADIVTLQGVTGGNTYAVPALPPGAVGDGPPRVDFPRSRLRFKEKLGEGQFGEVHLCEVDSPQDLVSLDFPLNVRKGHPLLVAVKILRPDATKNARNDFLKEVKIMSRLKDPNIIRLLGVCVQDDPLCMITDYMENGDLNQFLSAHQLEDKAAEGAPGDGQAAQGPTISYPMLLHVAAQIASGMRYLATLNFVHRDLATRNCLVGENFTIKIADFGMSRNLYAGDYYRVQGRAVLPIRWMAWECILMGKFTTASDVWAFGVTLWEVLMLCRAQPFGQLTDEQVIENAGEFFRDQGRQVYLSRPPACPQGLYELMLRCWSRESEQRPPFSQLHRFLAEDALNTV

[4] = target: Vascular endothelial growth factor receptor 1 (Homo sapiens, UniProt P17948); assay: Binding affinity to FLT1 (unknown origin) assessed as dissociation constant by competition binding assay
[5] = target: Vascular endothelial growth factor receptor 3 (Homo sapiens, UniProt P35916); assay: Binding affinity to FLT4 (unknown origin) assessed as dissociation constant by competition binding assay
[6] = target: Serine/threonine-protein kinase 10 (Homo sapiens, UniProt O94804); assay: Binding affinity to LOK (unknown origin) assessed as dissociation constant by competition binding assay
Sequence of Serine/threonine-protein kinase 10 (O94804 whole entry): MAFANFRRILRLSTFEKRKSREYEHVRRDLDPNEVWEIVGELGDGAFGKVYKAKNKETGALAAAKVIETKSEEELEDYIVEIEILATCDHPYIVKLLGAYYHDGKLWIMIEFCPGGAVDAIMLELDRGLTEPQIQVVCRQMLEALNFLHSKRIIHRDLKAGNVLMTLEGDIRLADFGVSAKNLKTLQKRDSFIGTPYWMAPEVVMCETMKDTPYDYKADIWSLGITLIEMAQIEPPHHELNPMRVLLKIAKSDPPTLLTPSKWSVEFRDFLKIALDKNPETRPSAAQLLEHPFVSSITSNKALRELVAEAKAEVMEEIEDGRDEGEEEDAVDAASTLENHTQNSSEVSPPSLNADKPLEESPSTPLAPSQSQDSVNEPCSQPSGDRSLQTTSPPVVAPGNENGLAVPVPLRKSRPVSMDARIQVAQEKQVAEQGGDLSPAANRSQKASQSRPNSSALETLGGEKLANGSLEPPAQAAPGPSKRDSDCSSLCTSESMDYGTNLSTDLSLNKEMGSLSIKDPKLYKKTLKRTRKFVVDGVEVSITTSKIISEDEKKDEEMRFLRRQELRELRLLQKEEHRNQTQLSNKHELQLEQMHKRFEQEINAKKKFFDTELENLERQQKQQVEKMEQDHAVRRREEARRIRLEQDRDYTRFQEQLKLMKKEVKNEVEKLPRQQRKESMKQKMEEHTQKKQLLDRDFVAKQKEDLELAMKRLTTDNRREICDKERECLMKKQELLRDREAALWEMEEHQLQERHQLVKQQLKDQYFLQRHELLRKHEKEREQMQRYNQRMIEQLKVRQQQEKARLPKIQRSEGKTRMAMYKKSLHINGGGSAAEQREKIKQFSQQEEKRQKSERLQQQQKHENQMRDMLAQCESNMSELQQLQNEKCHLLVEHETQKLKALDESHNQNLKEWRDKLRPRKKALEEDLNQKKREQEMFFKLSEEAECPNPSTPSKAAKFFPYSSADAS

[7] = target: Hepatocyte growth factor receptor (Homo sapiens, UniProt P08581); assay: Binding affinity to MET (unknown origin) assessed as dissociation constant by competition binding assay
Sequence of Hepatocyte growth factor receptor (P08581 whole entry): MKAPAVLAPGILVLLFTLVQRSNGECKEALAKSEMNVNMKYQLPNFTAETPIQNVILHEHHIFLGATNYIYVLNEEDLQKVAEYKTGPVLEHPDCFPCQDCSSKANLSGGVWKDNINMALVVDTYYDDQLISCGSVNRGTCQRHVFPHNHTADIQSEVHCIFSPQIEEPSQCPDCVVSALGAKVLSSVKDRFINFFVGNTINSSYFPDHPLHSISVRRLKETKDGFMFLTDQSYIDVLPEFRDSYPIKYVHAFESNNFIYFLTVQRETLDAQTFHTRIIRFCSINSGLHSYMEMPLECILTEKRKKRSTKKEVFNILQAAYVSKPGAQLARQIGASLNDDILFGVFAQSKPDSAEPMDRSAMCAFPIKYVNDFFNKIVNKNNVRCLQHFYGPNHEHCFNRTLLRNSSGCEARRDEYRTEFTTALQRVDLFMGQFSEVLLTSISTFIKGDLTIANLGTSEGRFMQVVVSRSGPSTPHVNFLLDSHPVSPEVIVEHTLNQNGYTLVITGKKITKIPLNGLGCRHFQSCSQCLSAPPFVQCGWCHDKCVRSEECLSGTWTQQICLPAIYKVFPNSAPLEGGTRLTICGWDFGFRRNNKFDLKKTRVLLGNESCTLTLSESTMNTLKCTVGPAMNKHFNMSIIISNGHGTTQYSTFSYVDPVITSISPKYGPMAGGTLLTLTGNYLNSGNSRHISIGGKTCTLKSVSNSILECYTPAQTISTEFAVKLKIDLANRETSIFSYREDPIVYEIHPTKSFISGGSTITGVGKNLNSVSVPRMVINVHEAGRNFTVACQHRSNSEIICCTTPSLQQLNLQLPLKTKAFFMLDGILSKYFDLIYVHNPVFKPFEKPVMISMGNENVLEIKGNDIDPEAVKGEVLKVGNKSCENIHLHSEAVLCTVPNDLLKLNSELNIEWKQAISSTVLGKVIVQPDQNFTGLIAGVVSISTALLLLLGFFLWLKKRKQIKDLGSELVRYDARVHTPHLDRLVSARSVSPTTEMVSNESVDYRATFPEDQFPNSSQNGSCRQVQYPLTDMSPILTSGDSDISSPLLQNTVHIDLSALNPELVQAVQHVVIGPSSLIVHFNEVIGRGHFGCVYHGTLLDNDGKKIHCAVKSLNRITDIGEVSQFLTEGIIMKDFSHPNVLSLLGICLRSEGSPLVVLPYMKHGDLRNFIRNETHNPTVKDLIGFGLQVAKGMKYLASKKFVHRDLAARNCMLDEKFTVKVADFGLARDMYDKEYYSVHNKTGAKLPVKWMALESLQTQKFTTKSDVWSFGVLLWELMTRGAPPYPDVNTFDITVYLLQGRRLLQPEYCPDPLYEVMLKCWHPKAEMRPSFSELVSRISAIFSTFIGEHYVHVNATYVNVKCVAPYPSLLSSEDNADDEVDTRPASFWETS

[8] = target: T2, Macrophage colony-stimulating factor 1 receptor; assay: Inhibition of CSF1R (unknown origin)
[9] = target: Serine/threonine-protein kinase AKT (Homo sapiens) (UniProt P31751+Q9Y243+P31749); assay: Inhibition of AKT phosphorylation at S473 residue in human MDA-MB-231 cells measured after 6 hrs by Western blot analysis; format: cell-based; settings: dose 0.8-500 nM, DDE = dose-dependent effect
[10] = target: Tyrosine-protein kinase receptor UFO (Mus musculus) (UniProt Q00993); assay: Inhibition of AXL phosphorylation at Tyr702 residue in mouse 4T1 cells measured after 6 hrs by Western blot analysis; format: cell-based; settings: dose 0.8-500 nM, DDE = dose-dependent effect
Sequence of Tyrosine-protein kinase receptor UFO (Mus musculus) (Q00993 whole entry): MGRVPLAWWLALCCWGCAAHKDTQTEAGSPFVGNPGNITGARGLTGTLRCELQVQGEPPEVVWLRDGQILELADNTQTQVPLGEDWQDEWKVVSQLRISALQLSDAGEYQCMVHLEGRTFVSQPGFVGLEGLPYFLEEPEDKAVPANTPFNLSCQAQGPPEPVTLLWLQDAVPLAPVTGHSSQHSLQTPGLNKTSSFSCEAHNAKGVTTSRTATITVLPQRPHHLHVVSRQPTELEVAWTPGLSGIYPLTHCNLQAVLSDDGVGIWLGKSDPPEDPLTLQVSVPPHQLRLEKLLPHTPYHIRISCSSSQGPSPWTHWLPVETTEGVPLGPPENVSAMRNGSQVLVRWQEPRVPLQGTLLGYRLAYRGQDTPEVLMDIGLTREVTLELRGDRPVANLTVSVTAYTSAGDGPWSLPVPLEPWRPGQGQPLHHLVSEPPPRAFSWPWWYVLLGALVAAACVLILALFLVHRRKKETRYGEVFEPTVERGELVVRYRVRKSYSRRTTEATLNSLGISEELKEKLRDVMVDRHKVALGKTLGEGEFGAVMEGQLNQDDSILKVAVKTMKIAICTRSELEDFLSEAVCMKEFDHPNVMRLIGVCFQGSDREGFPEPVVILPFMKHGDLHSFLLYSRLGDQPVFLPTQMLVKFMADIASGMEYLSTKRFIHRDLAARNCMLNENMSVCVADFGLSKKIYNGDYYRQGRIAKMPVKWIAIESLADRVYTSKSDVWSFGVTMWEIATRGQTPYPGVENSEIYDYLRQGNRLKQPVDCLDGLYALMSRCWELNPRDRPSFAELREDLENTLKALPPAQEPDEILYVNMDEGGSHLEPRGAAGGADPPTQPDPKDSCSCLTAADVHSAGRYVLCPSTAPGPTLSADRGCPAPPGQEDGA

[11] = Inhibition of TGF-beta induced cell invasion in human MDA-MB-231 cells at 3 uM incubated for 24 hrs by crystal violet staining based transwell assay relative to control; format: functional
MDA-MB-231 [12] = assay: Inhibition of TGF-beta induced epithelial mesenchymal transition process in human metastatic MDA-MB-231 cells assessed as restoration of E-cadherin expression incubated for 3 days by Western blot analysis; format: functional, cell-based; settings: dose 0.11-3 µM, time 3.0 day, DDE = dose-dependent effect
MDA-MB-231 [13] = assay: Inhibition of TGF-beta induced epithelial mesenchymal transition process in human metastatic MDA-MB-231 cells assessed as restoration of N-cadherin expression incubated for 3 days by Western blot analysis; format: functional, cell-based; settings: dose 0.11-3 µM, time 3.0 day, DDE = dose-dependent effect
[14] = Inhibition of TGF-beta induced cell invasion in human MDA-MB-231 cells at 0.33 uM incubated for 24 hrs by crystal violet staining based transwell assay relative to control; format: functional
[15] = Tmax in Sprague-Dawley rat at 5 mg/kg, iv measured for 96 hrs by LC-MS analysis; format: ADME, organism-based; settings: in vivo
[16] = Cmax in Sprague-Dawley rat at 5 mg/kg, iv measured for 96 hrs by LC-MS analysis; format: ADME, organism-based; set-up: time 96 hrs, dose 5 mg/kg, route iv; settings: in vivo
[17] = Cmax in Sprague-Dawley rat at 25 mg/kg, po measured for 96 hrs by LC-MS analysis; format: ADME, organism-based; set-up: dose 25 mg/kg, time 96 hrs, route po; settings: in vivo
[18] = AUClast in Sprague-Dawley rat at 5 mg/kg, iv measured for 96 hrs by LC-MS analysis; format: ADME, organism-based; set-up: time 96 hrs, dose 5 mg/kg, route iv; settings: in vivo
[19] = AUClast in Sprague-Dawley rat at 25 mg/kg, po measured for 96 hrs by LC-MS analysis; format: ADME, organism-based; set-up: time 96 hrs, dose 25 mg/kg, route po; settings: in vivo
[20] = Observed AUCinfinity in Sprague-Dawley rat at 5 mg/kg, iv measured for 96 hrs by LC-MS analysis; format: ADME, organism-based; set-up: dose 5 mg/kg, time 96 hrs, route iv; settings: in vivo
[21] = Observed AUCinfinity in Sprague-Dawley rat at 25 mg/kg, po measured for 96 hrs by LC-MS analysis; format: ADME, organism-based; set-up: dose 25 mg/kg, time 96 hrs, route po; settings: in vivo
[22] = Observed MRTinfinity in Sprague-Dawley rat at 5 mg/kg, iv measured for 96 hrs by LC-MS analysis; format: ADME, organism-based; settings: in vivo
[23] = Observed MRTinfinity in Sprague-Dawley rat at 25 mg/kg, po measured for 96 hrs by LC-MS analysis; format: ADME, organism-based; settings: in vivo
[24] = Oral bioavailability in Sprague-Dawley rat at 25 mg/kg measured for 96 hrs by LC-MS analysis; format: ADME, organism-based; settings: in vivo
4T1 [25] = assay: In vivo inhibition of AXL phosphorylation in BALB/c mouse implanted with mouse 4T1 cells administered orally once a day for 14 days; format: functional, organism-based; settings: dose 50-100 mg/kg, route po, time 14.0 day, DDE = dose-dependent effect
4T1 [26] = assay: Antitumor activity against metastatic mouse 4T1 cells implanted in BALB/c mouse assessed as reduction in number of liver metastases at 100 mg/kg, po qd administered for 14 consecutive days by H & E staining based microscopic analysis (reference value: 24.7 +/- 6.7); format: functional; settings: time 14 day
[27] = Toxicity in BALB/c mouse implanted with mouse 4T1 cells assessed as splenomegaly at 50 to 100 mg/kg, po qd administered for 14 consecutive days; format: organism-based; settings: in vivo, 336 h, dose 50-100 mg/kg, time 14 day

## COc1cc2c(Oc3ccc(Nc4nn(C)cc4C(=O)NC4CCCCC4)cc3F)ccnc2cc1OCCCN1CCOCC1
[1]
  IC50: 1.6 nM
BaF3
  IC50: 4.7 nM
[2]
  Kd: 29 nM
[3]
  Kd: > 1000 nM
[4]
  Kd: 14 nM
[5]
  Kd: 19 nM
[6]
  Kd: 880 nM
[7]
  Kd: > 1000 nM
[8]
  IC50: 26.7 nM
[9]
  inhibition: Dde
[10]
  inhibition: Dde
[11]
  inhibition at 3 µM: 70.4%
MDA-MB-231 [12]
  inhibition: Dde
MDA-MB-231 [13]
  inhibition: Dde
[14]
  inhibition at 0.33 µM: 34.8%
[15]
  Tmax: 4.8 min
[16]
  Cmax: 12300 ng/mL
[17]
  Cmax: 888 ng/mL
[18]
  AUC(0-t) at 96 h: 11700 ng·h/mL
[19]
  AUC(0-t) at 96 h: 8410 ng·h/mL
[20]
  AUC(0-inf): 11700 ng·h/mL
[21]
  AUC(0-inf): 8630 ng·h/mL
[22]
  MRT inf: 1.82 h
[23]
  MRT inf: 6.55 h
[24]
  bioavailability: 14.4%
4T1 [25]
  inhibition: Dde
4T1 [26]
  Activity: 2.8
[27]
  Activity: Non-Toxic
